Reference: patent publication US20050020544A1, “Bicyclic CB2 cannabinoid receptor ligands” (priority 2002, published 2005)

How the values were obtained:
[1] = test system: C57/BL male mice; assay: MPTP model for Parkinson's disease, TH immunoreactivity in SNpc; assay type: in vivo, mouse; details: 20 mg/kg i.p., once before first MPTP, day 7
Experimental: The mice (C57/BL male mice, average weight 30 g, Harlan, Israel) were administered i.p. with 4 injections of MPTP (Sigma, USA) (20 mg/kg, 5 ml/kg) in saline (Teva Medical Israel) at 2 hours interval on day 1. The treatment groups, including: (a) Saline, untreated, (b) MPTP, untreated, (c) Vehicle (1:20of CREMOPHOR EL®:ethanol), 5 ml/kg i.p., and (d) test compounds, were administered i.p. once just before the first MPTP administration. Seven days following the MPTP treatment the animals were sacrificed (by i.p. administration of pentobarbitone sodium CTS Israel 100 mg/kg) and their brains removed for tyrosine hydroxylase (TH) detection using immunohistochemistry technique.
Brains were fixed by cardiac perfusion with 4% Paraformaldehyde followed by immersion of the brain in the same fixative for at least 72 hours. Then brains were washed with PBS and transferred to 30% sucrose in PBS until they sank. After the brains sink in the sucrose, they were frozen using the cryostat special fast freezing (−60° C.). […] Quantitative analysis was performed by counting of immunoreactive (IR) cells at the widest dimension of the SNpc lateral to the roots of the third cranial nerve separating medial and lateral SN at the level of interpreduncular nucleus. The amount of the labeling at the striatum level was evaluated using computerized image analysis system.
All data are expressed as mean±SD. […]

[2] = test system: BALB/c inbred female mice; assay: ConA induced liver injury; assay type: in vivo, mouse; details: 1 mg/kg i.v., 8 hours of ConA treatment
Experimental: Each experimental group contains at least 5 BALB/c inbred female mice (25 g average weight, Harlan, Israel). The negative control group is composed of mice injected with saline instead of ConA. The injection of ConA (Sigma) is done i.v. at the base of the tail at the dose of 10 mg/kg in saline. The treatments are injected i.v. at 1 mg/kg, 30 minutes prior to the ConA injection. Compounds are dissolved in CREMOPHOR EL®:ethanol and vehicle only was included as an internal control.
Impact of treatment is monitored at three levels. First, blood samples (200-400 μl) are collected at predetermined time points alter ConA injection, using retro-orbital puncture. After short centrifugation (5000 rpm for 2 min) serum is recovered and stored at −80° C. until further use for determination of cytokines levels by ELISA and aminotransferase leakage from the liver as a marker for liver injury. In parallel, the level of cytokines, or other inflammatory mediators, is also determined in the organs of interests. For this purpose, the mice are killed by dislocation of the cervical vertebrae, at predetermined time points following ConA injection. […] Cells are incubated for 24 hours and cytokine levels in the supernatant are determined by ELISA as previously described.
The effect of compound A on liver injury was assessed by measuring the level of ALT in the plasma following 8 hours of ConA treatment. […]

Row | SMILES | SN dopaminergic (TH-IR) cells rescued from MPTP toxicity [1] | decrease in ALT in the plasma [2] [%]
1 | CCCCCCC(C)(C)c1cc(OC)c(C2C=C(CO)C3CC2C3(C)C)c(OC)c1 (single isomer, unassigned; (+)) [HU-308, (+) {4-[4-(1,1-dimethylheptyl)-2,6-dimethoxy-phenyl]-6,6-dimethyl-bicyclo[3.1.1]hept-2-en-2-yl}-methanol, reference compound] | about 43% | –
2 | CCCCCCC(C)(C)c1cc(O)c(C2CC(=O)C3CC2C3(C)C)c(O)c1 (single isomer, unassigned; (-)) [Compound A, (−)-4-[4-(1,1-Dimethyl-heptyl)2,6-dihydroxy-phenyl]-6,6-dimethyl-bicyclo[3.1.1)heptan-2-one] | – | 65
